Measured values reported in patent publication US20050014137A1, “Lentivirus assay system including Vif protein activity” (priority 2003, published 2005).
pEC50: −log10 of the molar value. Like-named read-outs stand apart in the source and are kept apart here.

How the values were obtained:
HIV-1 NL4.3 [1] = assay: MT-2 cell-based HIV co-culture assay (HeLa CD4 LTR/lacZ indicator cells, β-Gal reporter); settings: for pEC50: read-out: MT-2 Co-Culture Assay EC50; for EC90: read-out: MT-2 Co-Culture Assay EC90
Method: HeLa CD4 LTR/lacZ indicator cells were added to 96-well microtiter plates at cell densities of 1×10^4 cells/well in DMEM or RPMI medium (Life Technologies) containing 10% FBS (HyClone). MT-2 cells were infected with HIV-1 NL4.3 using 656, 1312, 2624, or 5248 TCID50s per 1.6×10^4 cells. Two hours after infection, infected MT-2 cells were washed with RPMI medium (Life Technologies) and added to the 96-well microtiter plates containing the HeLa CD4 LTR/lacZ indicator cells. The final MT2-cell densities in the indicator wells were 1.6×10^4 cells/well.
Virus replication was measured 4 days after infection by quantifying HIV-1 Tat induced beta-galactosidase (β-Gal) activity in the HeLa CD4 LTR/lacZ indicator cells using the Dual-Light™ System according to the manufacturer's protocol (Applied Biosystems). Experiments were performed in replicates of 3 or more.
Half-log dilutions of test compounds were added to HeLa CD4 LTR/lacZ indicator cells seeded in 96-well plates at a cell density of 1×10^4 cells per well in DMEM or RPMI (Life Technologies) containing 10% FBS (HyClone). MT-2 cells were infected with HIV-1 NL4.3 virus at an MOI of 0.08. Two hours after infection, infected cells were washed with RPMI, resuspended in RPMI medium, and added to the 96-well plates containing compound-treated or compound free HeLa CD4 LTR/lacZ indicator cells. Virus replication was measured 3 or 4 days after infection by quantifying HIV-1 Tat induced β-Gal activity in the HeLa CD4 LTR/lacZ indicator cells using the Dual-Light™ System according to the manufacturer's protocol (Applied Biosystems).
Data was expressed as the percent of reporter gene activity in infected compound-treated cells relative to that of infected, compound-free cells.

HIV-1 NL4.3 [2] = assay: PM1 cell-based HIV co-culture assay (HeLa CD4 LTR/lacZ indicator cells, β-Gal reporter); settings: for pEC50: read-out: PM-1 Co-Culture Assay EC50; for EC90: read-out: PM-1 Co-Culture Assay EC90
Source text: (§1) The modifications were as follows: PM1 cells were used in place of the MT-2 cells.
as §1

HIV-1 = settings: range of EC50 values reported in the literature, NIH anti-HIV therapeutics database, cited from earlier work
HIV-1 NL4.3 [3] = assay: Direct infection of HeLa CD4 LTR/lacZ indicator cells (known reporter cell assay); format: cell-based
Source text: This Example compared the present HIV co-culture assay with a known reporter cell-based assay method. This known method involved direct infection of HeLa CD4 LTR/lacZ indicator cells with HIV-1 (Kimpton and Emerman, J. Virol., 66(4):2232-2239 (1992)).
HeLa CD4 LTR/lacZ indicator cells were directly infected with TCID50s identical to those used in the co-culture experiments described in Examples 1 and 2. HeLa CD4 LTR/lacZ indicator cells were infected directly with HIV-1 NL4.3 using 656, 1312, 2624, or 5248 TCID50s per 1×10^4 cells.

[4] = Human immunodeficiency virus 1, MT2, 96 h
[5] = Human immunodeficiency virus 1, PM1, 96 h
[6] = read-out: Literature EC50 (Table 1)
[7] = read-out: Literature EC50 (Table 2)
[8] = Human immunodeficiency virus 1, MT2, 96 h, induced β-Gal activity 4 days after HIV-1 NL4.3 infection, MT-2 cells, MOI 0.08
[9] = Human immunodeficiency virus 1, PM1, 96 h, induced β-Gal activity 4 days after HIV-1 NL4.3 infection, PM-1 cells
[10] = Human immunodeficiency virus 1, 96 h, read-out: inhibition of the reporter signal
[11] = induced β-Gal activity 4 days after HIV-1 NL4.3 infection, MT-2 cells, MOI 0.08
[12] = induced β-Gal activity 4 days after HIV-1 NL4.3 infection, PM-1 cells

Compound | pEC50 (HIV-1 NL4.3 [1]; [4]) | EC90 (HIV-1 NL4.3 [1]; [4]) [µM] | pEC50 (HIV-1 NL4.3 [2]; [5]) | EC90 (HIV-1 NL4.3 [2]; [5]) [µM] | pEC50 (HIV-1; [6]) | pEC50 (HIV-1; [7]) | other results
Nc1ccn([C@@H]2CS[C@H](CO)O2)c(=O)n1 [3TC, lamivudine] | 6.38 | 5.5 | 6.74 | 1.7 |  |  | 
CC(C)(C)C(=O)OCOP(=O)(COCCn1cnc2c(N)ncnc21)OCOC(=O)C(C)(C)C [ADV, adefovir dipivoxil] |  |  |  |  | 6.30 to 7.40 | 6.30 to 7.40 | pEC50 (HIV-1 NL4.3 [1]; [8]): 7.41; EC90 (HIV-1 NL4.3 [1]; [8]): 0.22 µM; pEC50 (HIV-1 NL4.3 [2]; [9]): 7.60; EC90 (HIV-1 NL4.3 [2]; [9]): 0.15 µM
O=C(O)C1=CC(=C(c2ccc(O)c(C(=O)O)c2)c2ccc(O)c(C(=O)O)c2)C=CC1=O [ATA, aurintricarboxylic acid] | 5.48 | 9.9 |  |  |  |  | 
Cc1cn([C@H]2C[C@H](N=[N+]=[N-])[C@@H](CO)O2)c(=O)[nH]c1=O [AZT, 3′-Azido-3′-deoxythymidine] | 7.51 | 0.28 | 7.52 | 0.18 | 7.05 to 8.22 | 7.05 to 8.22 | 
CC(C)c1nc(COC(N)=O)n(Cc2ccncc2)c1Sc1cc(Cl)cc(Cl)c1 [CPV, Capravirine] | 8.62 | 0.012 |  |  |  |  | 
CC(C)Nc1cccnc1N1CCN(C(=O)c2cc3cc(NS(C)(=O)=O)ccc3[nH]2)CC1 [DLV, delavirdine] | 7.47 | 0.11 | 8.23 | 0.1 | 8.00 to 10.00 | 8.00 to 10.00 | 
O=C1Nc2ccc(Cl)cc2[C@@](C#CC2CC2)(C(F)(F)F)O1 [EFV, efavirenz] | 8.85 | 0.0043 | 9.72 | 0.0062 |  |  | inhibition at 0.1 µM (HIV-1 NL4.3 [1]; [10]): > 99%; inhibition of the reporter signal (HIV-1 NL4.3 [3]; inhibitor at >10×EC90): > 99%
CC(C)(C)NC(=O)[C@@H]1CN(Cc2cccnc2)CCN1C[C@@H](O)C[C@@H](Cc1ccccc1)C(=O)N[C@H]1c2ccccc2C[C@H]1O [IDV, indinavir] | 7.59 | 0.055 | 7.92 | 0.047 | 7.22 to 8.96 | 7.22 to 8.96 | 
O=C(NCc1ccc(F)cc1)c1nc(N2CCCCS2(=O)=O)c2cccnc2c1O [L-870810] |  |  |  |  | 8.10 to 8.40 | 8.10 to 8.40 | pEC50 (HIV-1 NL4.3 [1]; [11]): 8.85; EC90 (HIV-1 NL4.3 [1]; [11]): 0.0059 µM; pEC50 (HIV-1 NL4.3 [2]; [12]): 9.21; EC90 (HIV-1 NL4.3 [2]; [12]): 0.0024 µM
Cc1c(O)cccc1C(=O)N[C@@H](CSc1ccccc1)[C@H](O)CN1C[C@H]2CCCC[C@H]2C[C@H]1C(=O)NC(C)(C)C [NFV, nelfinavir] | 7.74 | 0.1 | 8.00 | 0.058 | 7.37 to 8.00 | 7.37 to 8.00 | inhibition at 1 µM (HIV-1 NL4.3 [1]; [10]): ~98%; inhibition of the reporter signal (HIV-1 NL4.3 [3]; inhibitor at 10×EC90): 42%; inhibition of the reporter signal (HIV-1 NL4.3 [2]; PM1 co-culture, inhibitor at ≧10×EC90): 99%
Cc1ccnc2c1NC(=O)c1cccnc1N2C1CC1 [NVP, Nevirapine] |  |  |  | 0.26 | 7.32 to 7.62 | 7.32 to 7.62 | pEC50 (HIV-1 NL4.3 [1]; [8]): 7.34; EC90 (HIV-1 NL4.3 [1]; [8]): 0.38 µM; pEC50 (HIV-1 NL4.3 [2]; [9]): 7.92
O=C(/C=C(\O)c1nc[nH]n1)c1ccc(Cc2ccc(F)cc2)o1 [S-1360] |  |  |  |  |  |  | pEC50 (HIV-1 NL4.3 [1]; [8]): 7.06; EC90 (HIV-1 NL4.3 [1]; [8]): 1.09 µM; pEC50 (HIV-1 NL4.3 [2]; [9]): 7.04; EC90 (HIV-1 NL4.3 [2]; [9]): 0.28 µM
CC(C)(C)NC(=O)[C@@H]1C[C@@H]2CCCC[C@@H]2CN1C[C@@H](O)[C@H](Cc1ccccc1)NC(=O)[C@H](CC(N)=O)NC(=O)c1ccc2ccccc2n1 [SQV, saquinavir] | 7.92 | 0.026 | 8.28 | 0.034 | 7.24 to 9.70 | 7.24 to 9.70 | 
Cc1cn([C@H]2C=C[C@@H](CO)O2)c(=O)[nH]c1=O [d4T, stavudine] | 6.68 | 3.6 |  |  | 5.10 to 8.00 |  | 
O=c1[nH]cnc2c1ncn2[C@H]1CC[C@@H](CO)O1 [ddl, didanosine] | 5.77 | 14 |  |  | 5.00 to 6.34 |  | 
